According to patent US20220273751A1, “GPCR HETEROMER INHIBITORS AND USES THEREOF” (GPCR THERAPEUTICS, INC., priority 2019, published 2022):
Values belong to the compound of their own block, whether it stands above or below them. Where a SMILES comes first, the peptide text is derived from it. Bridges are numbered along the chain shown (N, C = ends). [ ]: non-standard residue; d: D form. The star is where a group is joined. 2Nal = N[C@@H](Cc1ccc2ccccc2c1)C(=O)O; Lys(iPr) = CC(C)NCCCC[C@H](N)C(=O)O; Benzoyl(4-F) = O=C(c1ccc(F)cc1)*; Cit = NC(=O)NCCC[C@H](N)C(=O)O

How the values were obtained:
CXCR4 = target: T1, CXCR4 (Homo sapiens, UniProt P61073); assay: Calcium mobilization assay, MDA-MB-231 cells transduced with CXCR4 only; type: cell-based
T1 construct: expressed in transfected cells; host or cells: MDA-MB-231 (adenoviral transduction)
T1 sequence (P61073 whole entry): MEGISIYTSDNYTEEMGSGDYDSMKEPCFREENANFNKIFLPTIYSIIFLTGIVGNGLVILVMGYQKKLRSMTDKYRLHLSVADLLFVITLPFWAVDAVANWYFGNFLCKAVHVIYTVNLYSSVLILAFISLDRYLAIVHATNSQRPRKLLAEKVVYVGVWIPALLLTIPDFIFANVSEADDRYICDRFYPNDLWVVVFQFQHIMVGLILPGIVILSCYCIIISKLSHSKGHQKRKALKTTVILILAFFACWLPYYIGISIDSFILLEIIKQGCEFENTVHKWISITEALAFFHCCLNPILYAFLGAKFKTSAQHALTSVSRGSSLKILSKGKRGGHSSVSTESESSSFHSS

CXCR4-ADRB2 heteromer [1] = target: T2, CXCR4-ADRB2 heteromer (Homo sapiens, UniProt P07550+P61073); assay: Calcium mobilization assay, MDA-MB-231 cells co-transduced with CXCR4 and ADRB2; type: cell-based; conditions: for IC50: IC50 of Ca2+ response; for IC50 / decrease of IC50 of Ca2+ response upon co-administration of Carvedilol: Table 4; for decrease of IC50 of Ca2+ response upon co-administration of Carvedilol: Carvedilol 600 nM
Experimental: The next day, the cells were co-transduced with 10 MOI of CXCR4 and 30 MOI of GPCRx. […] Calcium mobilizations were measured using FlexStation 3 Multi-Mode Microplate Reader. The results were normalized for base-line activity. Calcium mobilizations were quantified by calculating the area-under-the-curve (AUC) of each graph.
MDA-MB-231 cells were transduced with adenoviruses encoding CXCR4 only, or CXCR4 and ADRB2.
Calcium mobilization was measured using FlexStation3, and the resulting IC50 values of calcium response were calculated using GraphPad Prism software.
The next day, cells were co-transduced with 10 MOI of CXCR4 and 30 MOI of GPCRx. Adenoviruses encoding HA-VC were used to adjust the total amount of adenoviruses transduced. After 2 days, cells were treated with antagonist with indicated amounts and incubated with Cal 6 (FLIPR® Calcium 6 Assay Kit by Molecular Devices, Cat. R8191) for 2 hr. […] Calcium mobilization was measured using FlexStation 3 Multi-Mode Microplate Reader (Molecular Devices, Sunnyvale, Calif., USA). The results were normalized for base-line activity. […] Data represent three independent experiments (mean±SEM).

A549-CXCR4-ADRB2 cells [2] = assay: Proliferation assay (Prestoblue), A549-CXCR4-ADRB2 cells; conditions: serum free, 72 hr; for block of CXCL12 effect on cell proliferation: FIGS. 18A-18E, 10 μM (AMD070 1 μM)
A549-CXCR4-ADRB2 cells [3] = assay: A549-CXCR4-ADRB2 xenograft, tumor growth; type: in vivo, mouse; conditions: 10 mpk; in only 2 doses
Experimental: The antitumor effect in mice transplanted with A549 cells containing CXCR4-ADRB2 by stably overexpressing both CXCR4 and ADRB2 (“A549-CXCR4-ADRB2 cells”) was evaluated using CXCR4 inhibitors currently under development or on the market. A549-CXCR4-ADRB2 cells (1×10^7 cell/head) were injected subcutaneously in nude mice. […]. The CXCR4 inhibitors were administered once a day for 4 weeks.
Five week-old, female Balb/c-nu/nu mice were obtained from Envigo (France) and maintained in specific pathogen-free animal facility. All protocols for animal use and euthanasia were approved by the Qubest Bio (South Korea) Animal Experimental Ethics Committee based on the Animal Protection Act. […] The tumor growth was monitored every third or fourth day by measuring the length (L) and width (W) of the tumor with an electronic caliper and calculating tumor volume in the basis of the following formula: Volume=0.5 LW^2.
For the antitumor efficacy test using CXCR4 inhibitors, A549-CXCR4-ADRB2 cell line overexpressing CXCR4 and ADRB2 in A549, lung cancer cell line was subcutaneously administered (1×10^7 cell in 100 μL PBS/head) to BALB/c-nu. […] The tumor growth was monitored every third or fourth day by measuring the length (L) and width (W) of the tumor: Volume=0.5 LW^2.

ERK1/2 [4] = assay: Western blot of phospho-ERK1/2, MDA-MB-231 cell lines; type: cell-based, human; conditions: for ERK1/2 activation, single agonist: MDA-MB-231 parent, MDA-MB-231-CXCR4 and MDA-MB-231-CXCR4-ADRB2 cells, data not shown
Experimental: MDA-MB-231 cells and A549 cells, expressing Rluc-luc2P or CXCR4, or containing CXCR4-ADRB2 heteromer, were seeded in 6 well plates at a density of 5×10^5 cells per well. […] Thereafter, each of the sets of cells were harvested and performed western blotting analysis.
Cells were seeded in 6 well plates at a density of 5×10^5 cells per well. […] Thereafter, the cells were harvested using NP-40 lysis buffer (Thermo Fisher Scientific, #FNN0021) supplemented with phosphatase inhibitor cocktail (Roche, #4906845001) and protease inhibitor cocktail (Thermo Fisher Scientific, #A32953). Proteins of cell lysates concentrations were determined by the Bio-Rad protein assay (Bio-Rad, #5000006). 20 μg of protein samples were subjected to reducing SDS-PAGE and transferred to PVDF (Polyvinylidene difluoride) using dry transfer system (Thermo Fisher Scientific, #IB21001). The membranes were blocked with 5% skim milk (BD Difco, #232100) in Tris-Buffered Saline with 1% Tween-twenty for 1 hour and incubated with phospho-ERK1/2 Thr202/Tyr204 (Cell Signaling Technology, #4370) and total-ERK1/2 (Cell Signaling Technology, #4695) antibodies. Antigen-antibody complexes were detected by incubating with horseradish peroxidase coupled secondary antibodies (Cell Signaling Technology) followed by SuperSignal West Femto Maximum Sensitivity Substrate (Thermo Fisher Scientific, #34096). Western blot images were captured and analyzed by iBright Western Blot Imaging System (Thermo Fisher Scientific, #A32752).

ERK1/2 [5] = assay: Western blot of phospho-ERK1/2, A549 cell lines; type: cell-based, human; conditions: A549-CXCR4-ADRB2 cells; 10 nM each; 10 minutes
CXCR4-ADRB2 heteromer [6] = target: T2, CXCR4-ADRB2 heteromer; assay: Calcium mobilization assay, HL-60 cells endogenously expressing CXCR4 and ADRB2; type: cell-based; conditions: for decrease of IC50 of Ca2+ response upon co-treatment of carvedilol, HL-60: Carvedilol 10 μM
[7] = system: MDA-MB-231-CXCR4-ADRB2 cells; assay: MDA-MB-231-CXCR4-ADRB2 orthotopic xenograft, tumor growth; type: in vivo, mouse; conditions: FIG. 22C; for suppression of tumor growth, single administration: once a day for 4 weeks
[8] = system: patient derived cells (PDCs) from glioblastoma; assay: Survival of patient derived cells (ATPlite); type: cell-based, human; conditions: PDC expressing CXCR4 and ADRB2; 7 days
Experimental: Single cell suspensions of resected and dissociated glioblastoma tissues from patients were prepared (provided by Samsung Seoul hospital in Seoul, Korea). These cells were cultured under conditions optimal for propagation and non-differentiation of normal neuronal stem cell. Media were composed serum free Neurobasal media supplemented with basic FGF and EGF.
The effects of GPCRx antagonist on the survival of patient derived cells (PDCs) were assessed using ATPlite (PerkinElmer, Cat. No. 6016739 reagent). ATPlite is an Adenosine Triphospate monitoring system based on firefly luciferase. This luminescence assay is the alternative to colorimetric, fluorometric and radioisotopic assays for the quantitative evaluation of proliferation and cytotoxicity of cultured mammalian cells. Cells were seeded in 384-well plate at 500 cells/well in 40 μL culture media. After overnight growth, the cells were cultured for 7 days in the presence of several dose of GPCRx antagonist or DMSO alone. After a 7-day incubation, 15 μL ATPlite was added into the each well and the plate were shaken for 5 minutes in an orbital shaker at 700 rpm. The luminescent signal was detected within 30 minutes at PerkinElmer TopCount detection instrument. The cell viability was calculated using the equation: Cell viability (%)=(OD of antagonist treatment/OD of DMSO only treatment)×100%.

CXCR4-ADRB2 heteromer [9] = target: T2, CXCR4-ADRB2 heteromer; assay: Calcium mobilization assay, U937 cells endogenously expressing CXCR4 and ADRB2; type: cell-based
ADRB2 = target: T3, ADRB2 (Homo sapiens, UniProt P07550); assay: Calcium mobilization assay, MDA-MB-231 cells transduced with ADRB2 only; type: cell-based; conditions: FIG. 5B; CXCL12 15 nM, salmeterol 100 nM
T3 construct: expressed in transfected cells; host or cells: MDA-MB-231 (adenoviral transduction)

CXCR4-ADRB2 heteromer [10] = target: T2, CXCR4-ADRB2 heteromer; assay: Internalization inhibition assay, CXCR4-GFP U-2 OS cells transduced with ADRB2; conditions: FIG. 8; CXCL12 20 nM or antagonist 10 μM; 20 minutes

IC50 (CXCR4; Table 4, cells expressing CXCR4 alone, CXCR4 inhibitor only, read-out: IC50 of Ca2+ response, CXCR4): 579 ± 204 nM
IC50 (CXCR4-ADRB2 heteromer [1]; CXCR4 + ADRB2 (+Carvedilol 600 nM), co-treated with Carvedilol 600 nM (its IC90)): 1.94 nM
IC50 (CXCR4-ADRB2 heteromer [1]; CXCR4 + ADRB2 (−Carvedilol 600 nM), CXCR4 inhibitor only): 88.7 nM
decrease of IC50 of Ca2+ response upon co-administration of Carvedilol (CXCR4-ADRB2 heteromer [1]): about 45.7 fold
Compound: N=C(N)NCCC[C@H](NC(=O)[C@@H]1CSSC[C@H](NC(=O)[C@H](Cc2ccc3ccccc3c2)NC(=O)[C@H](CCCNC(=N)N)NC(=O)[C@H](CCCNC(=N)N)NC(=O)c2ccc(F)cc2)C(=O)N[C@@H](Cc2ccc(O)cc2)C(=O)N[C@@H](CCCNC(N)=O)C(=O)N[C@@H](CCCCN)C(=O)N[C@H](CCCCN)C(=O)N2CCC[C@H]2C(=O)N[C@@H](Cc2ccc(O)cc2)C(=O)N[C@@H](CCCNC(=N)N)C(=O)N[C@@H](CCCNC(N)=O)C(=O)N1)C(N)=O [BKT140] ({Benzoyl(4-F)}-RR[2Nal]CY[Cit]K[dK]PYR[Cit]CR-NH2; disulfide 4-13)
block of CXCL12 effect on cell proliferation (A549-CXCR4-ADRB2 cells [2]): blocked the CXCL12 effect

Compound: CC(C)NCCCC[C@H](NC(=O)[C@H]1CCC(=O)N[C@@H](Cc2ccccc2)C(=O)N[C@@H](Cc2ccc(O)cc2)C(=O)N[C@@H](CCCCNC(C)C)C(=O)N[C@H](CCCNC(=N)N)C(=O)N[C@@H](Cc2ccc3ccccc3c2)C(=O)NCC(=O)N1)C(N)=O [LY2510924] (FY[Lys(iPr)][dR][2Nal]G[dE][Lys(iPr)]-NH2; lactam N-7)
death of mice (A549-CXCR4-ADRB2 cells [3]): 3 out of 10
block of CXCL12 effect on cell proliferation (A549-CXCR4-ADRB2 cells [2]): blocked the CXCL12 effect

Compound: OCc1cc(C(O)CNCCCCCCOCCCCc2ccccc2)ccc1O (centres unmarked) [salmeterol, Salmeterol]
ERK1/2 activation, co-stimulation with CXCL12 and salmeterol (ERK1/2 [4]; MDA-MB-231-CXCR4-ADRB2 cells, 10 nM each, 20 minutes): synergistically increased
ERK1/2 activation, single agonist (ERK1/2 [4]): induced ERK activation after 20 minutes
ERK1/2 phosphorylation, co-stimulation with CXCL12 and salmeterol (ERK1/2 [5]): significantly activated

decrease of IC50 of Ca2+ response upon co-treatment of carvedilol, HL-60 (CXCR4-ADRB2 heteromer [6]): about 12.7 fold
Compound: NCCCCN(Cc1nc2ccccc2[nH]1)[C@H]1CCCc2cccnc21 [AMD070]
inhibition of tumor growth, co-administration with Carvedilol ([7]; AMD070 3 or 10 mg/kg with Carvedilol 30 mg/kg): effectively inhibited the growth of the tumor
suppression of tumor growth, single administration [7]: limited suppression of tumor growth
block of CXCL12 effect on cell proliferation (A549-CXCR4-ADRB2 cells [2]): blocked the CXCL12 effect

Compound: COc1ccccc1OCCNCC(O)COc1cccc2[nH]c3ccccc3c12 (centres unmarked) [Carvedilol]
IC50 [8]: 11700 nM
suppression of tumor growth, single administration [7]: limited suppression of tumor growth

decrease of IC50 of Ca2+ response upon co-administration of Carvedilol (CXCR4-ADRB2 heteromer [1]): about 10.5 fold
decrease of IC50 of Ca2+ response upon co-treatment of carvedilol, U937 (CXCR4-ADRB2 heteromer [9]; Carvedilol 10 μM): about 6.4 fold
decrease of IC50 of Ca2+ response upon co-treatment of carvedilol, HL-60 (CXCR4-ADRB2 heteromer [6]): about 4.4 fold
Compound: c1cc(CN2CCCNCCNCCCNCC2)ccc1CN1CCCNCCNCCCNCC1 [AMD3100, plerixafor]
suppression of enhanced calcium signaling, co-administration with carvedilol (CXCR4-ADRB2 heteromer [1]; FIG. 6, AMD3100 10 μM with carvedilol 10 μM): greater suppression of the calcium signaling
block of CXCL12 effect on cell proliferation (A549-CXCR4-ADRB2 cells [2]): blocked the CXCL12 effect

EC50 (CXCR4; read-out: EC50 concentration against CXCR4): ~15 nM
calcium response, single agonist, cells overexpressing ADRB2 alone (ADRB2): did not induced calcium response
Compound: CXCL12: C-X-C Motif Chemokine ligand 12, CXCR4 agonist
calcium response, single agonist, cells expressing CXCR4 (CXCR4; FIG. 5A, CXCL12 15 nM, salmeterol 100 nM): evoked intracellular calcium mobilization
calcium response, single agonist, U937 (CXCR4-ADRB2 heteromer [9]; FIG. 26A, CXCL12 200 nM, formoterol 10 μM): evoked an intercellular calcium mobilization
calcium response, single agonist, HL-60 (CXCR4-ADRB2 heteromer [6]; FIG. 26B, CXCL12 200 nM, formoterol 10 μM): evoked an intercellular calcium mobilization
ERK1/2 activation, single agonist (ERK1/2 [4]): induced activation of ERK1/2 after 10 minutes
increase of cell proliferation rate (A549-CXCR4-ADRB2 cells [2]; CXCL12 100 nM): about 20%
internalization of CXCR4-GFP with ADRB2, substance alone (CXCR4-ADRB2 heteromer [10]): induced internalization of CXCR4-GFP with ADRB2
